Measurements reported in patent publication US8778340B2, “Anti-angiogenesis therapy for the treatment of ovarian cancer” (priority 2010, dated 2014).

Tests used:
[1] = tested on: newly diagnosed high risk FIGO stage I-IIa and stage IIb-IV epithelial ovarian, fallopian tube or primary peritoneal cancer; assay: ICON7 phase III randomized two-arm trial of adding bevacizumab to carboplatin and paclitaxel (Example 2); format: in vivo, human; conditions: for PFS hazard ratio (HR) (95% CI): CPB7.5+ versus CP, Log-Rank Test p 0.0010
Excerpt: Results are presented from a phase III randomized study (ICON7) to evaluate the safety and efficacy of adding bevacizumab to standard chemotherapy with carboplatin and paclitaxel. The primary endpoint was to determine whether the addition of bevacizumab to standard chemotherapy improves progression free survival (PFS) when compared to standard chemotherapy alone in women with newly diagnosed, histologically confirmed, high risk International Federation of Gynaecology and Obstetrics (FIGO) stage I and IIa (Grade 3 or clear cell carcinoma only) and FIGO stage IIb-IV (all grades and all histological types) epithelial ovarian, fallopian tube or primary peritoneal cancer, who have undergone initial surgery (either debulking cytoreductive surgery or a biopsy if the patient has FIGO stage IV disease) and who would not be considered for cytoreductive surgery prior to disease progression. Secondary endpoints included overall survival (OS), response rate, duration of response, biological progression free interval (defined by increasing CA 125 or PFIBIO), safety and quality of life. ICON7 was a 2-arm randomized clinical trial comparing standard therapy (carboplatin and paclitaxel) with one investigational arm incorporating bevacizumab in combination with paclitaxel and carboplatin (see FIG. 8). A total of 1528 eligible women participated in the trial.
ICON7 included patients with newly diagnosed, histologically confirmed, high risk FIGO stage I and IIa (Grade 3 or clear cell carcinoma only) and FIGO stage IIb-IV (all grades and all histological types) epithelial ovarian, fallopian tube or primary peritoneal cancer, who have undergone initial surgery (either debulking cytoreductive surgery or a biopsy if the patient has FIGO stage IV disease) and who will not be considered for cytoreductive surgery prior to disease progression. Patients with measurable and non-measurable disease are eligible. Patients were considered eligible for enrollment in this trial if they fulfilled all the inclusion criteria and none of the exclusion criteria as described below:
Tumor assessments, either by CT or MRI scan, with measurements using the RECIST criteria, were performed after three and six cycles of chemotherapy, and at around nine months and 12 months in the first year, or after cycle 12 and cycle 18 of treatment for patients on the research arm. In the second and third year of the trial tumour assessments were repeated every six months and thereafter as clinically indicated. These scans were performed irrespective of whether the patient has been optimally or sub-optimally debulked, and irrespective of whether there is measurable disease, or not, on the baseline scan.
Patients were clinically assessed and CA 125 measured at the start of every chemotherapy cycle and then six weekly during the first year of the trial. In the second and third year of the trial patients were assessed and CA 125 measured every three months. In the fourth and fifth year patients were clinically assessed and CA 125 measured every six months. Thereafter assessments were yearly. Progression based on CA 125 criteria alone were verified with a CT scan. If this was negative then it was repeated at the time of suspected clinical progression.
Regular physical examination and routine blood tests were performed during treatment to monitor patient safety. Quality of life (QoL) were assessed using the EORTC QLQ C-30+OV-28 and EQ-5D questionnaires at the start of every chemotherapy cycle, every six weeks until the end of the first year and then every three months until treatment for progression commenced, or to the end of year two. An additional QoL form was completed by all patients still alive three years after randomisation. Adverse events and medical resource use were documented during the study treatment and follow-up period.

[2] = tested on: newly diagnosed, previously untreated, stage III or IV epithelial ovarian, primary peritoneal or fallopian tube cancer; assay: Phase III trial of carboplatin and paclitaxel plus placebo versus plus concurrent bevacizumab versus plus concurrent and extended bevacizumab (Example 1, GOG 0218); format: in vivo, human; conditions: preliminary assessment of safety
Excerpt: Primary Objectives include to determine if the addition of 5 concurrent cycles of bevacizumab to 6 cycles of standard therapy (carboplatin and paclitaxel) [Arm II] increases the duration of progression-free survival (PFS) when compared to 6 cycles of standard therapy alone [Arm I] in women with newly diagnosed stage III (with any gross residual disease) and stage IV, epithelial ovarian, peritoneal primary or fallopian tube cancer; and, to determine if the addition of 5 concurrent cycles of bevacizumab plus extended bevacizumab for 16 cycles beyond the 6 cycles of standard therapy (carboplatin and paclitaxel) [Arm III] increases progression-free survival when compared to 6 cycles of standard therapy [Arm I] in women with newly diagnosed stage III (with any gross residual disease) and stage IV, epithelial ovarian, peritoneal primary or fallopian tube cancer.
In this study two experimental arms were selected to compare with standard cytotoxic chemotherapy with paclitaxel and carboplatin: one incorporating 5 cycles of bevacizumab (concurrent bevacizumab) and the other with bevacizumab for an additional 16 cycles after completion of chemotherapy with paclitaxel and carboplatin (extended bevacizumab). Calvert Formula for Carboplatin (AUC) Dosing: Total dose(mg)=target AUC(in mg/mL/minute)*[GFR(in mL/minute)+25]. […]

[3] = tested on: persistent or recurrent epithelial ovarian cancer or primary peritoneal cancer; conditions: 15 mg/kg every 21 days, cited from earlier work
[4] = tested on: platinum-sensitive recurrent epithelial ovarian, primary peritoneal, or fallopian tube carcinoma; assay: OCEANS phase III placebo-controlled trial of carboplatin and gemcitabine plus bevacizumab (Example 3); format: in vivo, human
Method: This example describes a placebo-controlled, randomized, multicenter Phase III study evaluating the efficacy and safety of bevacizumab (15 mg/kg, Day 1, every 21 days), administered in combination with carboplatin (area under the curve [AUC] 4, Day 1, every 21 days) with gemcitabine (1000 mg/m2, Day 1 and Day 8, every 21 days) in women with platinum sensitive recurrent epithelial ovarian, primary peritoneal, or fallopian tube carcinoma. About 480 patients were enrolled over a period of approximately 2.5 years. Patients were randomized in either carboplatin and gemcitabine with placebo versus carboplatin and gemcitabine with bevacizumab. […]
This phase III study of bevacizumab plus chemotherapy in women with ovarian cancer met its primary endpoint. […] PFS is defined as the time from randomization to disease progression as determined by the investigator or death due to any cause, whichever occurs first. The primary endpoint of PFS was assessed by the study investigators. Measurable disease was investigator assessed using modified RECIST (Therasse et al. 2000), e.g., every 9 weeks throughout the course of the study. […]

[5] = tested on: platinum resistant ovarian cancer or primary peritoneal serous cancer; conditions: same dose and schedule as GOG 170-D; 44 patients; cited from earlier work

Substance: CPB7.5+: ICON7 chemotherapy plus bevacizumab arm (Arm B), bevacizumab continued as maintenance for a total duration of 12 months
- PFS hazard ratio (HR) (95% CI) [1]: 0.79 (0.68; 0.91)
- PFS hazard ratio (HR) (95% CI) ([1]; listed as paclitaxel, carboplatin and anti-VEGF antibody): 0.79
- All Deaths ([1]; number of patients (percent)): 107 (14.3%)
- All Related Deaths ([1]; number of patients (percent)): 5 (0.7%)
- Deaths not due to Progression ([1]; number of patients (percent)): 19 (2.5%)
- Pts w. Grade 3/4/5 AE ([1]; number of patients (percent)): 479 (64.2%)
- Pts w. Serious AE ([1]; number of patients (percent)): 279 (37.4%)
- Pts who Disc. Any Treatment ([1]; number of patients (percent)): 293 (39.3%)
- Pts who Disc. Any Treatment due to AE ([1]; number of patients (percent)): 162 (21.7%)
- PFS median ([1]; primary analysis of PFS): 18.3 months
- difference in median PFS ([1]; versus paclitaxel and carboplatin alone): 2.3 months

Substance: bevacizumab: recombinant humanized anti-VEGF monoclonal antibody; human IgG1 framework with CDRs from murine antibody A.4.6.1
- tolerability of the treatment regimen / adverse events [2]: generally well tolerated
- response rate ([3]; NCI RECIST): 21%
- median PFS [3]: 4.7 months
- progression-free for at least 6 months [3]: 40%
- safety findings / adverse events ([4]; in vivo): No new safety findings were observed
- progression-free for at least 6 months [5]: 27%
- responses [5]: 16%
- preliminary assessment of adverse events ([1]; in vivo): consistent with previous studies

Substance: bevacizumab plus chemotherapy: OCEANS: Avastin 15 mg/kg with carboplatin and gemcitabine, followed by Avastin alone until disease progression
- progression-free survival compared to chemotherapy alone ([4]; investigator assessed, modified RECIST, followed by bevacizumab alone until disease progression): increased
